Eight molecules from patent EP3581565A1, “PHENYL BENZYL ETHER DERIVATIVE AND PREPARATION METHOD AND APPLICATION THEREOF” (Beijing Zhibo Bio-Medical Technology Co., Ltd., priority 2018, dated 2019) can be followed below.

By Ki is commonly meant the dissociation constant of the complex between target and ligand, obtained from inhibition or displacement.

Test system in the first data set: not listed separately
As to the kind of experiment: logD of labeled ligands. Format: physicochemical.
On to `COc1ccc(OCc2ccc([125I])cc2)cc1` [[^125I]4], for which the logD entry was “[^125I]4 (logD = 4.00± 0.08)”.

On to `FCCOc1ccc(OCc2ccc([125I])cc2)cc1` [[^125I]31a], for which the logD result was “[^125I]31a(logD = 3.96± 0.22)”.

In the case of `COc1ccc(OCc2ccc(OCC[18F])cc2)cc1` [[^18F]44a], the logD entry is “[^18F]44a(logD = 3.05 ± 0.08)”.

As for `COc1ccc(COc2ccc(OCC[18F])cc2)cc1` [[^18F] 53a], the logD result was “[^18F] 53a (logD= 3.65 ±0.04)”.

Regarding `CN(C)c1ccc(OCc2ccc([125I])cc2)cc1` [[^125I]22], the logD result is “[^125I]22(logD = 2.89± 0.09)”.

On to `COc1ccc(COc2ccc([125I])cc2)cc1` [[^125I]24], for which the logD entry is “[^125I]24 (logD = 4.16± 0.29)”.

For the next data set, the target named is T1, Aβ1-42 aggregates (Homo sapiens, UniProt P05067).
T1 construct: Preparing receptor Aβ1-42 proteins according to the existing method
T1 sequence (P05067 672-713 limits assumed): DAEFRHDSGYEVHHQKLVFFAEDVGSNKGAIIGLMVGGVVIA
Description: In-vitro competitive binding experiment (Ki determination) with Aβ1-42 aggregates. The procedure:
4, the compounds are separated after balancing, and the inhibition constant (Ki) is calculated by determining radioactivity.
• (1) Preparing 41 of PBS (0.2M) buffer solution with pH=7.4; • (2) Preparing radioligand [^125I]
Consider `Brc1ccc(OCc2ccc(I)cc2)cn1` [Compound 57, 2-bromo-5-((4-iodobenzyl)oxy) pyridine], for which the affinity, expressed as Ki, was 163 ± 23 nM.

`Clc1ccc(OCc2ccc(I)cc2)cn1` [Compound 55, 2-chloro-5-((4-iodobenzyl)oxy) pyridine] yielded a Ki of 880 ± 72.4 nM.
